Reference: patent US20260217735A1, “HETEROCYCLES AND USES THEREOF” (Kumquat Biosciences Inc., priority 2023, published 2026)

What was measured:
KRAS G12D = target: T1, KRAS G12D (Homo sapiens, UniProt P01116, G12D); test: HTRF assay, KRAS G12D interaction with SOS1; type: biochemical; conditions: bins <500 nM / 500 nM to 1000 nM, read-out: Inhibition of KRAS G12D (IC50)
T1 construct: made in house; host or cells: E. coli, e.g. BL21 (DE3)

KRAS WT = target: T2, KRAS WT (Homo sapiens, UniProt P01116); test: HTRF assay, wildtype KRAS interaction with SOS1; type: biochemical; conditions: bins <500 nM / 500 nM to 1000 nM, read-out: Inhibition of KRAS WT (IC50)
T2 construct: made in house; host or cells: E. coli, e.g. BL21 (DE3)
T2 sequence (P01116 1-188 isoform P01116-2): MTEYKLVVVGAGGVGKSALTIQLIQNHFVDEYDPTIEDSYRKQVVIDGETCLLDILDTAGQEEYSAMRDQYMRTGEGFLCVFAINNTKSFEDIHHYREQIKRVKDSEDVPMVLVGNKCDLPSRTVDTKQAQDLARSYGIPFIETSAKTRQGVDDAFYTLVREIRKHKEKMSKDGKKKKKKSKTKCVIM

KRAS G12V = target: T3, KRAS G12V (Homo sapiens, UniProt P01116, G12V); test: HTRF assay, KRAS G12V interaction with SOS1; type: biochemical; conditions: bins <500 nM / 500 nM to 1000 nM, read-out: Inhibition of KRAS G12V (IC50)
T3 construct: made in house; host or cells: E. coli, e.g. BL21 (DE3)
T3 sequence (P01116 1-188 isoform P01116-2 G12V): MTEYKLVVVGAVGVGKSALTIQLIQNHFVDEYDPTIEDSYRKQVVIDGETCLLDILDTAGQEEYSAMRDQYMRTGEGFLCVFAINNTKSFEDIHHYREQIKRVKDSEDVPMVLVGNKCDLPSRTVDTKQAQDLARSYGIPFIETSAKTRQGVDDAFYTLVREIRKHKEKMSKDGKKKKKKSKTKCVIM

KRAS G12S = target: T4, KRAS G12S (Homo sapiens, UniProt P01116, G12S); test: HTRF assay, KRAS G12S interaction with SOS1; type: biochemical; conditions: bins <500 nM / 500 nM to 1000 nM, read-out: Inhibition of KRAS G12S (IC50)
T4 construct: made in house; host or cells: E. coli, e.g. BL21 (DE3)
T4 sequence (P01116 1-188 isoform P01116-2 G12S): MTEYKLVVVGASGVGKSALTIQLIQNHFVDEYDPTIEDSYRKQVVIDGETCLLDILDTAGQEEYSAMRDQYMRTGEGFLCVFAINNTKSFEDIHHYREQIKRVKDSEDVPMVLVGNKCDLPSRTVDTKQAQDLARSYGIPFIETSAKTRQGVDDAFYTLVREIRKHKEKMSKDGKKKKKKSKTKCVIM

MiaPaca2 cells = test: Ras cellular assay, growth of cells with K-Ras G12C mutation; type: cell-based; conditions: Homo sapiens, MIA PaCa-2; cell proliferation assay; bins ≤500 nM / >500 nM; read-out: Inhibition of MiaPaca2 Cells (IC50)
Summary of the method: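 MIA PaCa-2 cells (K-Ras G12C, about 125-150 cells/well) grown in 0.25% soft agar over a 0.6% agar base, compound added on day 2 at 0.3% final DMSO. Growth read on day 10 by Cell Titer 96 AQueous absorbance (490 nm, reference 660 nm) against time-zero wells; IC50 from four-parameter fit.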

T1 sequence (P01116 1-188 isoform P01116-2 G12D): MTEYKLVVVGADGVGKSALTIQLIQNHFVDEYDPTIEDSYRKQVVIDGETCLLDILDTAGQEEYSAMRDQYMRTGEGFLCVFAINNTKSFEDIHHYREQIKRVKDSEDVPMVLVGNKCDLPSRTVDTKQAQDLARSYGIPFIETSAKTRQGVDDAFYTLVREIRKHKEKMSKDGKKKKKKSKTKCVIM

Row | SMILES | IC50 (KRAS G12D) [nM] | IC50 (KRAS WT) [nM] | IC50 (KRAS G12V) [nM] | IC50 (KRAS G12S) [nM] | IC50 (MiaPaca2 cells) [nM]
1 | Cc1c(C#N)ncn1C(=O)N1CC[C@@]12CCN(c1nc(OC[C@@]34CCCN3C[C@H](F)C4)nc3c(F)c(-c4ccc(F)c5sc(N)c(C#N)c45)c(Cl)cc13)C2 [Compound 121, 1-((4R)-6-(7-(2-amino-3-cyano-7-fluorobenzo[b]thiophen-4-yl)-6-chloro-8-fluoro-2-(((2R,7aS)-2-fluorotetrahydro-1H-pyrrolizin-7a(5H)-yl)methoxy)quinazolin-4-yl)-1,6-diazaspiro[3.4]octane-1-carbonyl)-5-methyl-1H-imidazole-4-carbonitrile] | < 500 | < 500 | < 500 | < 500 | ≤ 500
2 | Cc1cn(C(=O)N2C[C@]3(CC[C@H](C)N(c4nc(OC[C@@]56CCCN5C[C@H](F)C6)nc5c(F)c(-c6ccc(F)c7sc(N)c(C#N)c67)c(Cl)cc45)C3)[C@H]2C2(C)CC2)cn1 [Compound 210, 2-amino-4-(6-chloro-8-fluoro-2-(((2R,7aS)-2-fluorotetrahydro-1H-pyrrolizin-7a(5H)-yl)methoxy)-4-((1R,4R,7S)-7-methyl-2-(4-methyl-1H-imidazole-1-carbonyl)-1-(1-methylcyclopropyl)-2,6-diazaspiro[3.5]nonan-6-yl)quinazolin-7-yl)-7-fluorobenzo[b]thiophene-3-carbonitrile] | < 500 | < 500 | < 500 | < 500 | ≤ 500
3 | CCN(c1nc(OC[C@@]23CCCN2C[C@H](F)C3)nc2c(F)c(-c3ccc(F)c4sc(N)c(C#N)c34)c(C(F)(F)F)cc12)[C@@H]1CCN(C(=O)n2cnc(C#N)c2C)[C@@H]1C [Compound 139, 1-((2R,3R)-3-((7-(2-amino-3-cyano-7-fluorobenzo[b]thiophen-4-yl)-8-fluoro-2-(((2R,7aS)-2-fluorotetrahydro-1H-pyrrolizin-7a(5H)-yl)methoxy)-6-(trifluoromethyl)quinazolin-4-yl)(ethyl)amino)-2-methylpyrrolidine-1-carbonyl)-5-methyl-1H-imidazole-4-carbonitrile] | < 500 | < 500 | < 500 | < 500 | ≤ 500
4 | CCN(c1nc(OC[C@@]23CCCN2C[C@H](F)C3)nc2c(F)c(-c3ccc(F)c4sc(N)c(C#N)c34)c(C(F)(F)F)cc12)[C@@H]1CCN(C(=O)n2cc(C)nc2Cl)[C@@H]1C [Compound 162, 2-amino-4-(4-(((2R,3R)-1-(2-chloro-4-methyl-1H-imidazole-1-carbonyl)-2-methylpyrrolidin-3-yl)(ethyl)amino)-8-fluoro-2-(((2R,7aS)-2-fluorotetrahydro-1H-pyrrolizin-7a(5H)-yl)methoxy)-6-(trifluoromethyl)quinazolin-7-yl)-7-fluorobenzo[b]thiophene-3-carbonitrile] | < 500 | < 500 | < 500 | < 500 | ≤ 500
5 | C[C@@H]1[C@H](N(C)c2nc(OC[C@@]34CCCN3C[C@H](F)C4)nc3c(F)c(-c4ccc(F)c5sc(N)c(C#N)c45)c(Cl)cc23)CCN1C(=O)n1ccnc1C(F)(F)F [Compound 194, 2-amino-4-(6-chloro-8-fluoro-2-(((2R,7aS)-2-fluorotetrahydro-1H-pyrrolizin-7a(5H)-yl)methoxy)-4-(methyl((2R,3R)-2-methyl-1-(2-(trifluoromethyl)-1H-imidazole-1-carbonyl)pyrrolidin-3-yl)amino)quinazolin-7-yl)-7-fluorobenzo[b]thiophene-3-carbonitrile] | < 500 | < 500 | < 500 | < 500 | ≤ 500
6 | CCN(c1nc(OC[C@@]23CCCN2C[C@H](F)C3)nc2c(F)c(-c3ccc(F)c4sc(N)c(C#N)c34)c(Cl)cc12)[C@@H]1CCN(C(=O)n2cnc(C)c2C)[C@@H]1C [Compound 145, 2-amino-4-(6-chloro-4-(((2R,3R)-1-(4,5-dimethyl-1H-imidazole-1-carbonyl)-2-methylpyrrolidin-3-yl)(ethyl)amino)-8-fluoro-2-(((2R,7aS)-2-fluorotetrahydro-1H-pyrrolizin-7a(5H)-yl)methoxy)quinazolin-7-yl)-7-fluorobenzo[b]thiophene-3-carbonitrile] | < 500 | < 500 | < 500 | < 500 | ≤ 500
7 | C[C@@H]1[C@H](N(C)c2nc(OC[C@@]34CCCN3C[C@H](F)C4)nc3c(F)c(-c4ccc(F)c5sc(N)c(C#N)c45)c(Cl)cc23)CCN1C(=O)n1cc(C#N)cn1 [Compound 220, 1-((2R,3R)-3-((7-(2-amino-3-cyano-7-fluorobenzo[b]thiophen-4-yl)-6-chloro-8-fluoro-2-(((2R,7aS)-2-fluorotetrahydro-1H-pyrrolizin-7a(5H)-yl)methoxy)quinazolin-4-yl)(methyl)amino)-2-methylpyrrolidine-1-carbonyl)-1H-pyrazole-4-carbonitrile] | < 500 | < 500 | < 500 | < 500 | ≤ 500
8 | Cc1ncn(C(=O)N2CC[C@@]23CCN(c2nc(OC[C@@]45CCCN4C[C@H](F)C5)nc4c(F)c(-c5ccc(F)c6sc(N)c(C#N)c56)c(Cl)cc24)C3)c1C [Compound 147, 2-amino-4-(6-chloro-4-((R)-1-(4,5-dimethyl-1H-imidazole-1-carbonyl)-1,6-diazaspiro[3.4]octan-6-yl)-8-fluoro-2-(((2R,7aS)-2-fluorotetrahydro-1H-pyrrolizin-7a(5H)-yl)methoxy)quinazolin-7-yl)-7-fluorobenzo[b]thiophene-3-carbonitrile] | < 500 | < 500 | < 500 | < 500 | ≤ 500

Other lines, results leading:

Row | IC50 (KRAS G12D) [nM] | IC50 (KRAS WT) [nM] | IC50 (KRAS G12V) [nM] | IC50 (KRAS G12S) [nM] | IC50 (MiaPaca2 cells) [nM] | SMILES
9 | < 500 | < 500 | < 500 | < 500 | ≤ 500 | CN(c1nc(OC[C@@]23CCCN2C[C@H](F)C3)nc2c(F)c(-c3ccc(F)c4sc(N)c(C#N)c34)c(Cl)cc12)[C@@H]1CCN(C(=O)n2cncn2)C1 [Compound 181, 4-(4-(((R)-1-(1H-1,2,4-triazole-1-carbonyl)pyrrolidin-3-yl)(methyl)amino)-6-chloro-8-fluoro-2-(((2R,7aS)-2-fluorotetrahydro-1H-pyrrolizin-7a(5H)-yl)methoxy)quinazolin-7-yl)-2-amino-7-fluorobenzo[b]thiophene-3-carbonitrile]
10 | < 500 | 500 to 1000 | < 500 | < 500 | ≤ 500 | CCN(c1nc(OC[C@@]23CCCN2C[C@H](F)C3)nc2c(F)c(-c3cc(N)c(F)c(C)c3C(F)(F)F)ncc12)[C@@H]1CCN(C(=O)n2cnc(Cl)n2)[C@@H]1C [Compound 208, ((2R,3R)-3-((7-(5-amino-4-fluoro-3-methyl-2-(trifluoromethyl)phenyl)-8-fluoro-2-(((2R,7aS)-2-fluorotetrahydro-1H-pyrrolizin-7a(5H)-yl)methoxy)pyrido[4,3-d]pyrimidin-4-yl)(ethyl)amino)-2-methylpyrrolidin-1-yl)(3-chloro-1H-1,2,4-triazol-1-yl)methanone]
11 | < 500 | < 500 | < 500 | < 500 | ≤ 500 | CC(C)c1cn(C(=O)N2CC[C@@H](N(C)c3nc(OC[C@@]45CCCN4C[C@H](F)C5)nc4c(F)c(-c5ccc(F)c6sc(N)c(C#N)c56)c(Cl)cc34)[C@H]2C)cn1 [Compound 213, 2-amino-4-(6-chloro-8-fluoro-2-(((2R,7aS)-2-fluorotetrahydro-1H-pyrrolizin-7a(5H)-yl)methoxy)-4-(((2R,3R)-1-(4-isopropyl-1H-imidazole-1-carbonyl)-2-methylpyrrolidin-3-yl)(methyl)amino)quinazolin-7-yl)-7-fluorobenzo[b]thiophene-3-carbonitrile]
12 | < 500 | < 500 | < 500 | < 500 | ≤ 500 | Cc1c(F)c(N)cc(-c2ncc3c(N(C)[C@@H]4CCN(C(=O)n5cnc(F)n5)[C@@H]4C)nc(OC[C@@]45CCCN4C[C@H](F)C5)nc3c2F)c1C(F)(F)F [Compound 185, ((2R,3R)-3-((7-(5-amino-4-fluoro-3-methyl-2-(trifluoromethyl)phenyl)-8-fluoro-2-(((2R,7aS)-2-fluorotetrahydro-1H-pyrrolizin-7a(5H)-yl)methoxy)pyrido[4,3-d]pyrimidin-4-yl)(methyl)amino)-2-methylpyrrolidin-1-yl)(3-fluoro-1H-1,2,4-triazol-1-yl)methanone]
13 | < 500 | < 500 | < 500 | < 500 | ≤ 500 | C[C@@H]1[C@H](N(C)c2nc(OC[C@@]34CCCN3C[C@H](F)C4)nc3c(F)c(-c4ccc(F)c5sc(N)c(C#N)c45)c(Cl)cc23)CCN1C(=O)n1cccn1 [Compound 172, 2-amino-4-(6-chloro-8-fluoro-2-(((2R,7aS)-2-fluorotetrahydro-1H-pyrrolizin-7a(5H)-yl)methoxy)-4-(methyl((2R,3R)-2-methyl-1-(1H-pyrazole-1-carbonyl)pyrrolidin-3-yl)amino)quinazolin-7-yl)-7-fluorobenzo[b]thiophene-3-carbonitrile]
